Reference: patent US7700782B2, “Compounds 569” (AstraZeneca AB, priority 2007, dated 2010)
Structures can show the parent of a compound that is named as a salt.

Molecular target: T1, Adrenergic β2 (Homo sapiens, UniProt P07550)
T1 construct: Adherent H292 cells were removed from tissue culture flasks; endogenous in cells; host or cells: H292 cells
Assay: Adrenergic β2 mediated cAMP production in H292 cells (AlphaScreen cAMP detection)
Format: cell-based
Conditions: Intrinsic Activity, fraction relative to the maximum activity determined for formoterol
Protocol: Adrenergic β2 Mediated cAMP Production
H292 cells were grown in 225 cm2 flasks incubator at 37° C., 5% CO2 in RPMI medium containing, 10% (v/v) FBS (foetal bovine serum) and 2 mM L-glutamine.
Adherent H292 cells were removed from tissue culture flasks by treatment with Accutase™ cell detachment solution for 15 minutes. Flasks were incubated for 15 minutes in a humidified incubator at 37° C., 5% CO2. Detached cells were re-suspended in RPMI media (containing 10% (v/v) FBS and 2 mM L-glutamine) at 0.05×10^6 cells per mL. 5000 cells in 100 μL were added to each well of a tissue-culture-treated 96-well plate and the cells incubated overnight in a humidified incubator at 37° C., 5% CO2. The culture media was removed and cells were washed twice with 100 μL assay buffer and replaced with 50 μL assay buffer (HBSS solution containing 10 mM HEPES pH 7.4 and 5 mM glucose). Cells were rested at room temperature for 20 minutes after which time 25 μL of rolipram (1.2 mM made up in assay buffer containing 2.4% (v/v) dimethylsulphoxide) was added. Cells were incubated with rolipram for 10 minutes after which time test compounds were added and the cells were incubated for 60 minutes at room temperature. The final rolipram concentration in the assay was 300 μM and final vehicle concentration was 1.6% (v/v) dimethylsulphoxide. The reaction was stopped by removing supernatants, washing once with 100 μL assay buffer and replacing with 50 μL lysis buffer. The cell monolayer was frozen at −80° C. for 30 minutes (or overnight).
The concentration of cAMP (cyclic adenosine monophosphate) in the cell lysate was determined using AlphaScreen™ methodology. The frozen cell plate was thawed for 20 minutes on a plate shaker then 10 μL of the cell lysate was transferred to a 96-well white plate. 40 μL of mixed AlphaScreen™ detection beads pre-incubated with biotinylated cAMP, was added to each well and the plate incubated at room temperature for 10 hours in the dark. The AlphaScreen™ signal was measured using an EnVision spectrophotometer (Perkin-Elmer Inc.) with the recommended manufacturer's settings. cAMP concentrations were determined by reference to a calibration curve determined in the same experiment using standard cAMP concentrations. Concentration response curves for agonists were constructed and data was fitted to a four parameter logistic equation to determine both the pEC50 and Intrinsic Activity. Intrinsic Activity was expressed as a fraction relative to the maximum activity determined for formoterol in each experiment.

T1 sequence (P07550 whole entry): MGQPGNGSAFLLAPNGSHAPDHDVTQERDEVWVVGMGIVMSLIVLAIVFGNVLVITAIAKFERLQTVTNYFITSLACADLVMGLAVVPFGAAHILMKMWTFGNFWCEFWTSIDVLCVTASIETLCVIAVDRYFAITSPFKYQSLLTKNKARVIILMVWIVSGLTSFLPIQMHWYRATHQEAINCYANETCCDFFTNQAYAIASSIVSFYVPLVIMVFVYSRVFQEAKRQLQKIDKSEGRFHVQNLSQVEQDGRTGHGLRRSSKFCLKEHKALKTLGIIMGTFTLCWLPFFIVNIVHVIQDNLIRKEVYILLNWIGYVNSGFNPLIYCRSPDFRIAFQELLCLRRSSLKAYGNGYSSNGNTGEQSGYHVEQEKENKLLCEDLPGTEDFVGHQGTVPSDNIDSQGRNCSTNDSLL

β2 Int Act	Structure (SMILES)
0.78	O=C(CCNCCc1ccccn1)N(CCNCCc1ccc(O)c2[nH]c(=O)sc12)C1CCCCC1 [Example 33, N-Cyclohexyl-N-(2-{[2-(4-hydroxy-2-oxo-2,3-dihydro-1,3-benzothiazol-7-yl)ethyl]amino}ethyl)-N^3-(2-pyridin-2-ylethyl)-β-alaninamide bis-trifluoroacetic acid salt]
0.97	O=C(CCNCCc1cccc(O)c1)N(CCNCCc1ccc(O)c2[nH]c(=O)sc12)C1CCCCC1 [Example 71, N^1-Cyclohexyl-N^1-(2-{[2-(4-hydroxy-2-oxo-2,3-dihydro-1,3-benzothiazol-7-yl)ethyl]amino}ethyl)-N^3-[2-(3-hydroxyphenyl)ethyl]-β-alaninamide bis-trifluoroacetic acid salt]
0.83	O=C(CCNCCc1ccc(Cl)cc1)N(CCNCCc1ccc(O)c2[nH]c(=O)sc12)C1CCOCC1 [Example 26, N^3-[2-(4-Chlorophenyl)ethyl]-N-(2-{[2-(4-hydroxy-2-oxo-2,3-dihydro-1,3-benzothiazol-7-yl)ethyl]amino}ethyl)-N-(tetrahydro-2H-pyran-4-yl)-β-alaninamide bis-trifluoroacetic acid salt]
0.87	O=C(CCNCCc1cccc(Cl)c1)N(CCNCCc1ccc(O)c2[nH]c(=O)sc12)C1CCCCC1 [Example 12, N^3-[2-(3-Chlorophenyl)ethyl]-N-cyclohexyl-N-(2-{[2-(4-hydroxy-2-oxo-2,3-dihydro-1,3-benzothiazol-7-yl)ethyl]amino}ethyl)-β-alaninamide bis-trifluoroacetic acid salt]
0.73	O=C(CCNCCc1cccc(Cl)c1)N(CCNCCc1ccc(O)c2[nH]c(=O)sc12)C1CCC(F)(F)CC1 [Example 47, N^3-[2-(3-Chlorophenyl)ethyl]-N^1-(4,4-difluorocyclohexyl)-N^1-(2-{[2-(4-hydroxy-2-oxo-2,3-dihydro-1,3-benzothiazol-7-yl)ethyl]amino}ethyl)-β-alaninamide bis-trifluoroacetic acid salt]
0.96	O=C(CCNCCc1cccc(Cl)c1)N(CCNCCc1ccc(O)c2[nH]c(=O)sc12)C1CCCC1 [Example 30, N^3-[2-(3-Chlorophenyl)ethyl]-N-cyclopentyl-N-(2-{[2-(4-hydroxy-2-oxo-2,3-dihydro-1,3-benzothiazol-7-yl)ethyl]amino}ethyl)-β-alaninamide bis-trifluoroacetic acid salt]
0.68	O=C(CCNCCc1ccc2c(c1)OCO2)N(CCNCCc1ccc(O)c2[nH]c(=O)sc12)C1CCCCC1 [Example 76, N^3-[2-(1,3-Benzodioxol-5-yl)ethyl]-N^1-cyclohexyl-N^1-(2-{[2-(4-hydroxy-2-oxo-2,3-dihydro-1,3-benzothiazol-7-yl)ethyl]amino}ethyl)-β-alaninamide bis-trifluoroacetic acid salt]
0.84	Cc1cccc(CCNCCC(=O)N(CCNCCc2ccc(O)c3[nH]c(=O)sc23)C2CCCCC2)c1 [Example 14, N-Cyclohexyl-N-(2-{[2-(4-hydroxy-2-oxo-2,3-dihydro-1,3-benzothiazol-7-yl)ethyl]amino}ethyl)-N^3-[2-(3-methylphenyl)ethyl]-β-alaninamide bis-trifluoroacetic acid salt]
0.91	O=C(CCNCCc1cccc(Cl)c1)N(CCNCCc1ccc(O)c2[nH]c(=O)sc12)C1CCCCCC1 [Example 50, N^3-[2-(3-Chlorophenyl)ethyl]-N^1-cycloheptyl-N^1-(2-{[2-(4-hydroxy-2-oxo-2,3-dihydro-1,3-benzothiazol-7-yl)ethyl]amino}ethyl)-β-alaninamide bis-trifluoroacetic acid salt]

The next lines start with the compound.

Structure (SMILES)	β2 Int Act
O=C(CCNCCc1ccccc1)N(CCNCCc1ccc(O)c2[nH]c(=O)sc12)C1CCCCCC1 [Example 23, N-Cycloheptyl-N-(2-{[2-(4-hydroxy-2-oxo-2,3-dihydro-1,3-benzothiazol-7-yl)ethyl]amino}ethyl)-N^3-(2-phenylethyl)-β-alaninamide bis-trifluoroacetic acid salt]	0.85
CC(CN(C(=O)CCNCCc1ccccc1)C1CCCCC1)NCCc1ccc(O)c2[nH]c(=O)sc12 (stereo not drawn) [Example 105, N-Cyclohexyl-N-(2-{[2-(4-hydroxy-2-oxo-2,3-dihydro-1,3-benzothiazol-7-yl)ethyl]amino}propyl)-N^3-(2-phenylethyl)-β-alaninamide bis-trifluoroacetic acid salt]	0.86
O=C(CCNCCc1cccc(F)c1)N(CCNCCc1ccc(O)c2[nH]c(=O)sc12)CC12CC3CC(CC(C3)C1)C2 [Example 60, N^1-(1-Adamantylmethyl)-N^3-[2-(3-fluorophenyl)ethyl]-N^1-(2-{[2-(4-hydroxy-2-oxo-2,3-dihydro-1,3-benzothiazol-7-yl)ethyl]amino}ethyl)-β-alaninamide bis-trifluoroacetic acid salt]	0.76
CCCC[C@@H](C)N(CCNCCc1ccc(O)c2[nH]c(=O)sc12)C(=O)CCNCCc1ccccc1 [Example 101, N-(2-{[2-(4-Hydroxy-2-oxo-2,3-dihydro-1,3-benzothiazol-7-yl)ethyl]amino}ethyl)-N-[(1R)-1-methylpentyl]-N^3-(2-phenylethyl)-β-alaninamide bis-trifluoroacetic acid salt]	0.98
CC(C)(CNCCC(=O)N(CCNCCc1ccc(O)c2[nH]c(=O)sc12)C1CCCCC1)c1ccccc1 [Example 21, N-Cyclohexyl-N-(2-{[2-(4-hydroxy-2-oxo-2,3-dihydro-1,3-benzothiazol-7-yl)ethyl]amino}ethyl)-N^3-(2-methyl-2-phenylpropyl)-β-alaninamide bis-trifluoroacetic acid salt]	0.85
CC(C)(CO)CN(CCNCCc1ccc(O)c2[nH]c(=O)sc12)C(=O)CCNCCc1ccc(Cl)cc1 [Example 40, N^3-[2-(4-Chlorophenyl)ethyl]-N-(3-hydroxy-2,2-dimethylpropyl)-N-(2-{[2-(4-hydroxy-2-oxo-2,3-dihydro-1,3-benzothiazol-7-yl)ethyl]amino}ethyl)-β-alaninamide diacetic acid salt]	0.64
O=C(CCNCCC(F)(F)F)N(CCNCCc1ccc(O)c2[nH]c(=O)sc12)C1CCCCC1 [Example 80, N^1-Cyclohexyl-N^1-(2-{[2-(4-hydroxy-2-oxo-2,3-dihydro-1,3-benzothiazol-7-yl)ethyl]amino}ethyl)-N^3-(3,3,3-trifluoropropyl)-β-alaninamide bis-trifluoroacetic acid salt]	0.86
O=C(CCNCCc1c(F)cccc1F)N(CCNCCc1ccc(O)c2[nH]c(=O)sc12)C1CCCCCC1 [Example 84, N^1-Cycloheptyl-N^3-[2-(2,6-difluorophenyl)ethyl]-N^1-(2-{[2-(4-hydroxy-2-oxo-2,3-dihydro-1,3-benzothiazol-7-yl)ethyl]amino}ethyl)-β-alaninamide bis-trifluoroacetic acid salt]	0.89
O=C(CCNCCc1ccc(O)c2[nH]c(=O)sc12)N(CCNCCc1ccc(O)c2[nH]c(=O)sc12)C1CCCCCC1 [Example 87, N^1-Cycloheptyl-N^3-[2-(4-hydroxy-2-oxo-2,3-dihydro-1,3-benzothiazol-7-yl)ethyl]-N^1-(2-{[2-(4-hydroxy-2-oxo-2,3-dihydro-1,3-benzothiazol-7-yl)ethyl]amino}ethyl)-β-alaninamide bis-trifluoroacetic acid salt]	0.72
O=C(CCNCCc1cccc(F)c1)N(CCNCCc1ccc(O)c2[nH]c(=O)sc12)C1CCCCC1 [Example 96, N-Cyclohexyl-N^3-[2-(3-fluorophenyl)ethyl]-N-(2-{[2-(4-hydroxy-2-oxo-2,3-dihydro-1,3-benzothiazol-7-yl)ethyl]amino}ethyl)-β-alaninamide dihydrobromide salt]	0.85
O=C(CCNCCc1ccc2c(c1)OCCO2)N(CCNCCc1ccc(O)c2[nH]c(=O)sc12)C1CCCCCC1 [Example 88, N^1-Cycloheptyl-N^3-[2-(2,3-dihydro-1,4-benzodioxin-6-yl)ethyl]-N^1-(2-{[2-(4-hydroxy-2-oxo-2,3-dihydro-1,3-benzothiazol-7-yl)ethyl]amino}ethyl)-β-alaninamide bis-trifluoroacetic acid salt]	0.37

Same assay, conditions: Intrinsic Activity, fraction relative to the maximum activity determined for formoterol, dihydrobromide salt

Structure (SMILES)	β2 Int Act
O=C(CCNCCc1ccccc1)N(CCNCCc1ccc(O)c2[nH]c(=O)sc12)C1CCCCCC1 [Example 98, N-Cycloheptyl-N-(2-{[2-(4-hydroxy-2-oxo-2,3-dihydro-1,3-benzothiazol-7-yl)ethyl]amino}ethyl)-N^3-(2-phenylethyl)-β-alaninamide dihydrobromide salt]	0.8
